Measurements published in patent US7109215B2, “Compounds possessing neuronal activity” (Vertex Pharmaceuticals Incorporated, priority 1997, dated 2006).
pKi: −log10 of the molar value. Marks after values point to notes of the source that are not given here. Values belong to the compound of their own block, whether it stands above or below them.

Columns and labels:
[1] = tested on: pheochromocytoma PC12 cells; experiment: Neurite outgrowth quantitation in PC12 cell system; type: cell-based, rat; details: 1–5 ng/ml NGF, 72 hours
Procedure: In order to directly determine the neurotrophic activity of compounds described in this invention, the neurite outgrowth assay was carried out with pheochromocytoma PC12 cells as described by Lyons et al. (1994).
PC12 cells were maintained at 37° C. and 5% CO2 in Dulbecco's modified Eagle's medium (DMEM) supplemented with 10% heat-inactivated horse serum, 5% heat-inactivated fetal bovine serum (FBS), and 1% glutamate.
The cells were then plated at […] in 96 well plates coated with […] rat tail collagen and allowed to attach overnight. The medium was then replaced with DMEM, 2% heat-inactivated horse serum, 1% glutamate, 1–5 ng/ml of NGF (Sigma) and varying concentrations of the compounds of this invention (0.01 nM–10000 nM). The background control culture was administered with […] of NGF alone without compound. Positive control cultures were administered with high concentration of NGF (50 ng/ml). The cells were then incubated at 37° C. at 5% CO2 for 72 hours, fixed with 3% formaldehyde and nerve outgrowth was determined visually on a scale of 0 to 4.

[2] = tested on: L1210vMDRC.06 cells; experiment: MDR sensitization (reversal) assay, doxorubicin, XTT viability; type: cell-based, mouse; details: compound 2.5 μM, IC50 Dox/IC50 Dox+Inhibitor
Procedure: (§1) We carried out multidrug resistance reversal (MDR) assays using L1210vMDRC.06 or HL60/Vinc cell lines. L1210vMDRC.06 are L1210 mouse leukemia cells transduced with the pHaMDR1/A retrovirus carrying a MDR1 cDNA, as described by Pastan et al., Proc. Natl. Acad. Sci. USA, 85, pp. 4486–4490 (1988). The L1210vMDRC.06 multidrug resistant line is a cell line that has been drug-selected by culturing transfected cells in 0.06 μg/ml colchicine. The HL60/Vinc human promyleocytic leukemia cell line is a multidrug resistant cell line derived from HL60 drug-sensitive parental cells by selection in increasing concentrations of vincristine.
Using L1210vMDRC.06, multidrug resistance reversal assays were conducted by plating 1×10^4 cells/well in 96 well microtiter plates and exposing them to a concentration range of doxorubicin (50 nM–10 μM) in the presence or absence of compounds of this invention (0.1, 0.25, 0.5, 1.0, or 2.5 μM) as described in U. Germann et al., Anti-Cancer Drugs, 8, pp. 125–140 (1997). After culture for 3 days, the viability of cells was quantitated using XTT dye to assess mitochondrial function [Roehm et al., J. Immunol. […] Results were determined by comparison of the IC50 for doxorubicin alone to the IC50 for doxorubicin+compound. An MDR ratio was calculated (IC50 Dox/IC50 Dox+Inhibitor) and the integer value used for comparison of compound potencies.

[3] = target: FKBP (Homo sapiens, UniProt P62942); experiment: Rotamase inhibition assay (chymotrypsin-coupled PPIase assay); type: biochemical; details: 15 nM FKBP, 30 μM Suc-Ala-Leu-Pro-Phe-pNA, 15° C.
Procedure: Inhibition of FKBP enzyme activity was determined in the PPIase assay described in S. T. Park et al., J. Biol. Chem., 267, pp. 3316–24 (1992), the disclosure of which is herein incorporated by reference. This is a chymotrypsin-coupled assay in which FKBP catalyzes the cis to trans isomerization of the Leu-Pro bond in the peptide substrate Suc-Ala-Leu-Pro-Phe-pNA. The trans form, but not the cis form, is cleavable by chymotrypsin. The release Phe-pNA was monitored by absorbance at 400 nm. Chymotrypsyn cleavage is very rapid and therefore cis-to-trans isomerization is rate-limiting.
Each reaction mix consisted of 0.1 M Tris buffer, pH 7.8, 15 nM FKBP, 30 μM substrate and 0.5 nM to 10 μM of compound to be tested diluted in Me2SO. The mixture was incubated at 15° C. for 5 minutes and then reaction was initiated by addition of chymotrypsin (100 μg/ml final concentration) and followed spectrophotometrically for 5 minutes. Total reaction volume was 1 ml.

[4] = tested on: HL60/Vinc cells; experiment: MDR sensitization (reversal) assay, doxorubicin, XTT viability; type: cell-based, human; details: compound 2.5 μM, IC50 doxorubicin alone / IC50 doxorubicin plus compound
Procedure: as §1
Assays using HL60/Vinc cells were performed by plating cells in 96 well microtiter plates at a concentration of 4×10^4 cells/well. The cells were then exposed to various concentrations of doxorubicin (9 nM to 6.7 μM) in the presence or absence of various compounds of this invention at various concentrations (0.5, 1.0, 2.5, 5.0 or 10 μM) as described in U. Germann et al., Anti-Cancer Drugs, 8, pp. 141–155 (1997). After culturing the cells for 3 days, their viability was quantitated using the XTT dye method to assess mitochondrial function (Roehm et al., supra). Results were expressed as a ratio of the IC50 for doxorubicin alone to the IC50 for doxorubicin plus compound. In all assays the intrinsic antiproliferative or cytotoxicity activity of the MDR inhibitors was also determined for HL60/Vinc cells.

Chain of FKBP (P62942 whole entry): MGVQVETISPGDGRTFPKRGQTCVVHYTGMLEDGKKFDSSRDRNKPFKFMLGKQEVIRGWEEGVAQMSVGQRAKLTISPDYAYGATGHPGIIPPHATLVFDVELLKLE

SMILES: COc1cc(C(=O)CN2CCCCC2C(=O)OC(CCCc2cccnc2)CCCc2cccnc2)cc(OC)c1OC (stereo not drawn) [Compound 105]
Neurite outgrowth, visual scale of 0 to 4 ([1]; compound 10 nM): 4
Neurite outgrowth, visual scale of 0 to 4 ([1]; compound 100 nM): 4
Neurite outgrowth, visual scale of 0 to 4 ([1]; compound 1000 nM): 0
MDR Ratio [2]: 10

SMILES: CNC(Cc1ccccc1)C(=O)N(C)CCc1ccccn1 (stereo not drawn) [Compound 107]
pKi [3]: < 4.60
Neurite outgrowth, visual scale of 0 to 4 ([1]; compound 100 nM): 3*
Neurite outgrowth, visual scale of 0 to 4 ([1]; compound 1000 nM): 0*
MDR Ratio [4]: 0.9

SMILES: CN(CCCc1cccnc1)C(=O)C1CCCCN1 (stereo not drawn) [Compound 110]
pKi [3]: < 4.60
Neurite outgrowth, visual scale of 0 to 4 ([1]; compound 100 nM): 3*
Neurite outgrowth, visual scale of 0 to 4 ([1]; compound 1000 nM): 0*
MDR Ratio [4]: 1.1

Continued, in another order:

pKi [3]: < 4.60
SMILES: CNC(Cc1ccccc1)C(=O)N(C)CCCc1cccnc1 (stereo not drawn) [Compound 108]
Neurite outgrowth, visual scale of 0 to 4 ([1]; compound 10 nM): 0
Neurite outgrowth, visual scale of 0 to 4 ([1]; compound 100 nM): 3
Neurite outgrowth, visual scale of 0 to 4 ([1]; compound 1000 nM): 0
MDR Ratio [4]: 0.4

pKi [3]: < 4.30
SMILES: CN1CCCCC1C(=O)OC(CCCc1ccncc1)CCCc1cccnc1 (stereo not drawn) [Compound 111]
Neurite outgrowth, visual scale of 0 to 4 ([1]; compound 0.01 nM): 4*
Neurite outgrowth, visual scale of 0 to 4 ([1]; compound 0.1 nM): 4*
Neurite outgrowth, visual scale of 0 to 4 ([1]; compound 1 nM): 3*
Neurite outgrowth, visual scale of 0 to 4 ([1]; compound 10 nM): 2**
Neurite outgrowth, visual scale of 0 to 4 ([1]; compound 100 nM): 4**
Neurite outgrowth, visual scale of 0 to 4 ([1]; compound 1000 nM): 4**
Neurite outgrowth, visual scale of 0 to 4 ([1]; compound 10000 nM): 4*
MDR Ratio [4]: 1.2

pKi [3]: < 4.30
SMILES: CC(C)CN1CCCCC1C(=O)OC(CCCc1ccncc1)CCCc1cccnc1 (stereo not drawn) [Compound 112]
Neurite outgrowth, visual scale of 0 to 4 ([1]; compound 10 nM): 3*
Neurite outgrowth, visual scale of 0 to 4 ([1]; compound 100 nM): 4*
Neurite outgrowth, visual scale of 0 to 4 ([1]; compound 1000 nM): 3*
MDR Ratio [4]: 2.4

pKi [3]: < 4.30
SMILES: O=C(OC(CCCc1ccncc1)CCCc1cccnc1)C1CCCCN1Cc1ccncc1 (stereo not drawn) [Compound 113]
Neurite outgrowth, visual scale of 0 to 4 ([1]; compound 10 nM): 3*
Neurite outgrowth, visual scale of 0 to 4 ([1]; compound 100 nM): 4*
Neurite outgrowth, visual scale of 0 to 4 ([1]; compound 1000 nM): 4*
MDR Ratio [4]: 2.3
